The test system of the assay is synthesis of LTB4 in human whole blood. Kind of assay: human whole blood (HWB) assay, LTB4 production inhibition. It is filed as cell-based. The conditions noted are these: calcimycin 20 μM. The method, then: The compounds of the invention are additionally tested in a human whole blood (HWB) assay to determine their ability to inhibit the synthesis of LTB4 in a cellular system. Compounds are combined with heparinized human whole blood and incubated for 15 minutes at 37° C. Calcimycin (20 μM final, prepared in phosphate-buffered saline, pH 7.4) is then added and the mixture is incubated for another 30 minutes at 37° C. The samples are centrifuged for 5 min at low speed (1500×g) and the plasma layer is removed. Plasma LTB4 concentrations are then measured using an antibody-based homogenous time-resolved fluorescence method (CisBio, Bedford, Mass.). In general, the preferred potency range (IC50) of compounds in the HWB assay is between 10 nM to 10 μM, the more preferred potency range is 10 nM to 1 μM, and the most preferred potency range is 10 nM to 100 nM.

SMILES strings stand for the structures.

As to `O=C1CCCN1CC1CCCN(Cc2ccc(C3COc4ccccc4O3)cc2)C1` (racemic) [Example 10, 1-({1-[4-(2,3-dihydro-1,4-benzodioxin-2-yl)benzyl]piperidin-3-yl}methyl)pyrrolidin-2-one], the IC50 (commonly the midpoint of a concentration-inhibition curve) came out at 352 nM.

As to `c1cnc2c(c1)OCC(c1ccc(CN3CCOCC3)cc1)O2` (racemic) [Example 18, 3-[4-(morpholin-4-ylmethyl)phenyl]-2,3-dihydro[1,4]dioxino[2,3-b]pyridine], the IC50 is 176 nM.

For the compound `CNC(=O)C1CCN(Cc2ccc(C3COc4ccccc4O3)cc2)CC1` (racemic) [Example 25, 1-[4-(2,3-dihydro-1,4-benzodioxin-2-yl)benzyl]-N-methylpiperidine-4-carboxamide], the IC50 turned out to be 294 nM.

Regarding `O=C(O)CCCC1CCN(Cc2ccc(C3COc4ccccc4O3)cc2)CC1` (racemic) [Example 26, 4-{1-[4-(2,3-dihydro-1,4-benzodioxin-2-yl)benzyl]piperidin-4-yl}butanoic acid], the IC50 amounted to 308 nM.

With `O=C(C1CCN(Cc2ccc(C3COc4ccccc4O3)cc2)CC1)N1CCOCC1` (racemic) [Example 37, {1-[4-(2,3-dihydro-1,4-benzodioxin-2-yl)benzyl]piperidin-4-yl}(morpholin-4-yl)methanone], the IC50 was determined as 324 nM.

Take `O=C(NCCO)C1CCN(Cc2ccc(C3COc4ccccc4O3)cc2)CC1` (racemic) [Example 52, 1-[4-(2,3-dihydro-1,4-benzodioxin-2-yl)benzyl]-N-(2-hydroxyethyl)piperidine-4-carboxamide]: the IC50 stood at 145 nM.

With `NC(=O)NC1CCN(Cc2ccc(C3COc4ccccc4O3)cc2)CC1` (racemic) [Example 53, 1-{1-[4-(2,3-dihydro-1,4-benzodioxin-2-yl)benzyl]piperidin-4-yl}urea], the concentration for half-maximal inhibition (IC50) is 155 nM.

With `O[C@H]1CCN(Cc2ccc(C3COc4ccccc4O3)cc2)C1` (stereo partly drawn) [Example 9, (3S)-1-[4-(2,3-dihydro-1,4-benzodioxin-2-yl)benzyl]pyrrolidin-3-ol], the IC50 worked out at 285 nM.

Turning to `O=C(O)C1CCN(Cc2ccc([C@H]3COc4ccccc4O3)cc2)C1` (stereo partly drawn) [Example 61, 1-{4-[(2S)-2,3-dihydro-1,4-benzodioxin-2-yl]benzyl}pyrrolidine-3-carboxylic acid], the IC50 worked out at 250 nM.

Turning to `CC(=O)N1CC[C@@H](NCc2ccc([C@H]3COc4ccccc4O3)cc2)C1` [Example 64, 1-[(3R)-3-({4-[(2S)-2,3-dihydro-1,4-benzodioxin-2-yl]benzyl}amino)pyrrolidin-1-yl]ethanone], the IC50 came out at 158 nM.

Take `CN(Cc1ccc([C@H]2COc3ccccc3O2)cc1)C1CCCCC1` [Example 67, N-{4-[(2S)-2,3-dihydro-1,4-benzodioxin-2-yl]benzyl}-N-methylcyclohexanamine]: the IC50 came out at 346 nM.

As to `CC1CCCCN1Cc1ccc([C@H]2COc3ccccc3O2)cc1` (stereo partly drawn) [Example 68, 1-{4-[(2S)-2,3-dihydro-1,4-benzodioxin-2-yl]benzyl}-2-methylpiperidine], the half-inhibitory concentration (IC50) amounted to 80.7 nM.

For the compound `OCC1CCCN(Cc2ccc([C@H]3COc4ccccc4O3)cc2)C1` (stereo partly drawn) [Example 69, (1-{4-[(2S)-2,3-dihydro-1,4-benzodioxin-2-yl]benzyl}piperidin-3-yl)methanol], the IC50 turned out to be 165 nM.

As to `CN(Cc1ccc([C@H]2COc3ccccc3O2)cc1)C(C)(C)C` [Example 81, N-{4-[(2S)-2,3-dihydro-1,4-benzodioxin-2-yl]benzyl}-N,2-dimethylpropan-2-amine], the IC50 is 80.7 nM.

Consider `CC(=O)N(C)C1CCN(Cc2ccc([C@H]3COc4ccccc4O3)cc2)C1` (stereo partly drawn) [Example 83, N-(1-{4-[(2S)-2,3-dihydro-1,4-benzodioxin-2-yl]benzyl}pyrrolidin-3-yl)-N-methylacetamide], for which the IC50 was determined as 33.5 nM.

Take `c1ccc2c(c1)OC[C@H](c1ccc(CN3CCC[C@H]4CCCC[C@@H]43)cc1)O2` [Example 85, (4aR,8aS)-1-{4-[(2S)-2,3-dihydro-1,4-benzodioxin-2-yl]benzyl}decahydroquinoline]: the IC50 was determined as 305 nM.

As to `OC[C@H]1CCCC[C@H]1NCc1ccc([C@H]2COc3ccccc3O2)cc1` [Example 87, [(1S,2R)-2-({4-[(2S)-2,3-dihydro-1,4-benzodioxin-2-yl]benzyl)amino)cyclohexyl] methanol], the IC50 came to 268 nM.

Take `COC1CCN(Cc2ccc([C@H]3COc4ccccc4O3)cc2)CC1` [Example 98, 1-{4-[(2S)-2,3-dihydro-1,4-benzodioxin-2-yl]benzyl}-4-methoxypiperidine]: the IC50 came to 180 nM.

With `O=C1CCCN1CC1CCN(Cc2ccc([C@H]3COc4ccccc4O3)cc2)CC1` [Example 99, 1-[(1-{4-[(2S)-2,3-dihydro-1,4-benzodioxin-2-yl]benzyl}piperidin-4-yl)methyl]pyrrolidin-2-one], the IC50 is 95.4 nM.

Regarding `CCN(Cc1ccc([C@H]2COc3ccccc3O2)cc1)C1CCCC1` [Example 109, N-{4-[(2S)-2,3-dihydro-1,4-benzodioxin-2-yl]benzyl}-N-ethylcyclopentanamine], the IC50 was determined as 75.5 nM.

As to `O=C1NCCCC12CCN(Cc1ccc([C@H]3COc4ccccc4O3)cc1)CC2` [Example 116, 9-{4-[(2S)-2,3-dihydro-1,4-benzodioxin-2-yl]benzyl}-2,9-diazaspiro[5.5]undecan-1-one], the IC50 amounted to 310 nM.

Turning to `CC(=O)N1CCCC12CCN(Cc1ccc([C@H]3COc4ccccc4O3)cc1)C2` (stereo partly drawn) [Example 118, 1-(7-{4-[(2S)-2,3-dihydro-1,4-benzodioxin-2-yl]benzyl}-1,7-diazaspiro[4.4]non-1-yl)ethanone], the half-inhibitory concentration (IC50) came out at 256 nM.

`CN1CCC2(CCN(Cc3ccc([C@H]4COc5ccccc5O4)cc3)CC2)C1=O` [Example 121, 8-{4-[(2S)-2,3-dihydro-1,4-benzodioxin-2-yl]benzyl}-2-methyl-2,8-diazaspiro[4.5]decan-1-one]: the IC50 was found to be 159 nM.

Regarding `NC(=O)CN1CCCC12CCN(Cc1ccc([C@H]3COc4ccccc4O3)cc1)C2` (stereo partly drawn) [Example 123, 2-(7-{4-[(2S)-2,3-dihydro-1,4-benzodioxin-2-yl]benzyl}-1,7-diazaspiro[4.4]non-1-yl)acetamide], the IC50 was determined as 312 nM.

With `O=C1NCCC12CCN(Cc1ccc([C@H]3COc4cccnc4O3)cc1)CC2` [Example 125, 8-{4-[(3S)-2,3-dihydro[1,4]dioxino[2,3-b]pyridin-3-yl]benzyl}-2,8-diazaspiro[4.5]decan-1-one], the IC50 worked out at 39.2 nM.

Regarding `c1cnc2c(c1)OC[C@H](c1ccc(CN3CCCC3)cc1)O2` [Example 126, (3S)-3-[4-(pyrrolidin-1-ylmethyl)phenyl]-2,3-dihydro[1,4]dioxino[2,3-b]pyridine], the IC50 is 32.3 nM.

With `O=C(O)CCC1CCN(Cc2ccc([C@H]3COc4ccccc4O3)cc2)CC1` [Example 134, 3-(1-{4-[(2S)-2,3-dihydro-1,4-benzodioxin-2-yl]benzyl}piperidin-4-yl)propanoic acid], the IC50 is 94.6 nM.

Consider `CC1CCN(Cc2ccc([C@H]3COc4cccnc4O3)cc2)CC1` [Example 137, (3S)-3-{4-[(4-methylpiperidin-1-yl)methyl]phenyl}-2,3-dihydro[1,4]dioxino[2,3-b]pyridine], for which the IC50 stood at 27.6 nM.

On to `CN(CCc1ccccn1)Cc1ccc([C@H]2COc3cccnc3O2)cc1` [Example 138, N-{4-[(3S)-2,3-dihydro[1,4]dioxino[2,3-b]pyridin-3-yl]benzyl}-N-methyl-2-(pyridin-2-yl)ethanamine], for which the IC50 was found to be 76 nM.

In the case of `c1cnc2c(c1)OC[C@H](c1ccc(CN3CCCCCC3)cc1)O2` [Example 139, (3S)-3-[4-(azepan-1-ylmethyl)phenyl]-2,3-dihydro[1,4]dioxino[2,3-b]pyridine], the IC50 came to 13.2 nM.

`CCN(C)Cc1ccc([C@H]2COc3cccnc3O2)cc1` [Example 140, N-{4-[(3S)-2,3-dihydro[1,4]dioxino[2,3-b]pyridin-3-yl]benzyl}-N-methylethanamine]: the 50% inhibitory concentration (IC50) was 33.4 nM.

Take `CCN(CC)Cc1ccc([C@H]2COc3cccnc3O2)cc1` [Example 141, N-{4-[(3S)-2,3-dihydro[1,4]dioxino[2,3-b]pyridin-3-yl]benzyl}-N-ethylanamine]: the 50% inhibitory concentration (IC50) is 32.8 nM.

Turning to `CN(Cc1ccc([C@H]2COc3cccnc3O2)cc1)C1CCCC1` [Example 142, N-{4-[(3S)-2,3-dihydro[1,4]dioxino[2,3-b]pyridin-3-yl]benzyl}-N-methylcyclopentanamine], the concentration for half-maximal inhibition (IC50) worked out at 24.4 nM.

Take `c1cnc2c(c1)OC[C@H](c1ccc(CN3[C@H]4CC[C@@H]3CC4)cc1)O2` [Example 145, (3S)-3-{4-[(1s,4s)-7-azabicyclo[2.2.1]hept-7-ylmethyl]phenyl}-2,3-dihydro[1,4]dioxino[2,3-b]pyridine]: the IC50 came out at 28.4 nM.

With `FC1CCN(Cc2ccc([C@H]3COc4cccnc4O3)cc2)CC1` [Example 155, (3S)-3-{4-[(4-fluoropiperidin-1-yl)methyl]phenyl}-2,3-dihydro[1,4]dioxino[2,3-b]pyridine], the IC50 is 95.4 nM.

Take `c1cnc2c(c1)OC[C@H](c1ccc(CN3CCn4cnnc4C3)cc1)O2` [Example 156, (3S)-3-[4-(5,6-dihydro[1,2,4]triazolo[4,3-a]pyrazin-7(8H)-ylmethyl)phenyl]-2,3-dihydro[1,4]dioxino[2,3-b]pyridine]: the IC50 was 159 nM.

Consider `CC(C)(CN1CCCC1)NCc1ccc([C@H]2COc3cccnc3O2)cc1` [Example 157, N-{4-[(3S)-2,3-dihydro[1,4]dioxino[2,3-b]pyridin-3-yl]benzyl}-2-methyl-1-(pyrrolidin-1-yl)propan-2-amine], for which the IC50 worked out at 35 nM.

For the compound `COC1CCCN(Cc2ccc([C@H]3COc4cccnc4O3)cc2)C1` (stereo partly drawn) [Example 158, (3S)-3-{4-[(3-methoxypiperidin-1-yl)methyl]phenyl}-2,3-dihydro[1,4]dioxino[2,3-b]pyridine], the IC50 came out at 27.5 nM.

These data come from patent US11957671B2, “Benzodioxane modulators of leukotriene A4 hydrolase (LTA4H) for prevention and treatment of aging-associated diseases” (Alkahest, Inc., priority 2021, dated 2024).
